Article PMC10041525, “New Dual Inhibitors of Bacterial Topoisomerases with Broad-Spectrum Antibacterial Activity and In Vivo Efficacy against Vancomycin-Intermediate Staphylococcus aureus” (Journal of Medicinal Chemistry, 2023)
≈ marks a conversion by molar mass, not a printed value. Like-named read-outs stand apart in the source and are kept apart here.

Columns and labels:
[1] = system: E. coli ATCC 35218; assay: IHMA QC MIC; assay type: cell-based; conditions: Escherichia coli, ATCC35218; read-out: MIC (QC, repeated tests)
Description: The panel of Hungarian clinical isolates and controls measured following the same method as detailed above, and albeit measurements were carried out in 384-well microtiter plates (Corning Inc.).

[2] = system: 100 A. baumannii strains (50 MDR, 50 non-MDR); assay: MIC broth microdilution at IHMA Europe, panel of 100 strains; assay type: cell-based; conditions: Acinetobacter baumannii, read-out: MIC

## C[C@@H](O)[C@H]1C(=O)N2C(C(=O)O)=C(S[C@@H]3CN[C@H](C(=O)N(C)C)C3)[C@H](C)[C@H]12 [Meropenem, meropenem]
[1]
  MIC: ≤ 0.06 mg/L
[2]; A. baumannii IHMA 1769393, Lithuania 2018, Non-MDR
  MIC: 0.25 mg/L (≈ 0.652 µM)
[2]; A. baumannii IHMA 1769782, Israel 2018, MDR
  MIC: > 16 mg/L
[2]; A. baumannii IHMA 1769910, Israel 2018, Non-MDR
  MIC: 0.25 mg/L (≈ 0.652 µM)
[2]; A. baumannii IHMA 1790317, Czech Republic 2018, Non-MDR
  MIC: 0.12 mg/L (≈ 0.313 µM)
[2]; A. baumannii IHMA 1790916, Romania 2018, Non-MDR
  MIC: ≤ 0.06 mg/L
[2]; A. baumannii IHMA 1791877, Israel 2018, MDR
  MIC: > 16 mg/L
[2]; A. baumannii IHMA 1792961, Jordan 2018, MDR
  MIC: > 16 mg/L
[2]; A. baumannii IHMA 1795669, Tunisia 2018, Non-MDR
  MIC: 0.25 mg/L (≈ 0.652 µM)
[2]; A. baumannii IHMA 1814276, Lebanon 2018, MDR
  MIC: > 16 mg/L
[2]; A. baumannii IHMA 1815198, Kuwait 2018, MDR
  MIC: > 16 mg/L
[2]; A. baumannii IHMA 1815856, Israel 2018, MDR
  MIC: > 16 mg/L
[2]; A. baumannii IHMA 1821468, South Africa 2018, Non-MDR
  MIC: 0.25 mg/L (≈ 0.652 µM)
[2]; A. baumannii IHMA 1829500, Georgia 2018, Non-MDR
  MIC: 0.12 mg/L (≈ 0.313 µM)
[2]; A. baumannii IHMA 1830924, United Kingdom 2018, Non-MDR
  MIC: 0.5 mg/L (≈ 1.3 µM)
[2]; A. baumannii IHMA 1849819, Kuwait 2018, MDR
  MIC: > 16 mg/L
[2]; A. baumannii IHMA 1849829, Kuwait 2018, Non-MDR
  MIC: 0.12 mg/L (≈ 0.313 µM)
[2]; A. baumannii IHMA 1857118, Slovenia 2018, Non-MDR
  MIC: 0.25 mg/L (≈ 0.652 µM)
[2]; A. baumannii IHMA 1863631, France 2018, Non-MDR
  MIC: 0.12 mg/L (≈ 0.313 µM)
[2]; A. baumannii IHMA 1870054, United States 2018, Non-MDR
  MIC: 0.25 mg/L (≈ 0.652 µM)
[2]; A. baumannii IHMA 1884428, Italy 2018, Non-MDR
  MIC: 0.12 mg/L (≈ 0.313 µM)
[2]; A. baumannii IHMA 1884990, Germany 2018, Non-MDR
  MIC: 0.25 mg/L (≈ 0.652 µM)
[2]; A. baumannii IHMA 1900538, Turkey 2018, Non-MDR
  MIC: 0.12 mg/L (≈ 0.313 µM)
[2]; A. baumannii IHMA 1913773, Kenya 2018, Non-MDR
  MIC: 0.25 mg/L (≈ 0.652 µM)
[2]; A. baumannii IHMA 1926285, Qatar 2018, Non-MDR
  MIC: ≤ 0.06 mg/L
[2]; A. baumannii IHMA 1926288, Qatar 2018, MDR
  MIC: > 16 mg/L
[2]; A. baumannii IHMA 1957343, Portugal 2019, Non-MDR
  MIC: 0.25 mg/L (≈ 0.652 µM)
[2]; A. baumannii IHMA 1963732, Turkey 2019, MDR
  MIC: > 16 mg/L
[2]; A. baumannii IHMA 1967860, Spain 2019, Non-MDR
  MIC: 0.25 mg/L (≈ 0.652 µM)
[2]; A. baumannii IHMA 1971673, Latvia 2019, MDR
  MIC: > 16 mg/L
[2]; A. baumannii IHMA 1975075, Israel 2019, Non-MDR
  MIC: 0.25 mg/L (≈ 0.652 µM)
[2]; A. baumannii IHMA 1977077, Kuwait 2019, Non-MDR
  MIC: 0.5 mg/L (≈ 1.3 µM)
[2]; A. baumannii IHMA 1983151, Greece 2019, MDR
  MIC: > 16 mg/L
[2]; A. baumannii IHMA 1984665, Lithuania 2019, MDR
  MIC: > 16 mg/L
[2]; A. baumannii IHMA 1986678, Turkey 2019, Non-MDR
  MIC: 0.25 mg/L (≈ 0.652 µM)
[2]; A. baumannii IHMA 1986738, Turkey 2019, MDR
  MIC: > 16 mg/L
[2]; A. baumannii IHMA 1987162, Croatia 2019, MDR
  MIC: > 16 mg/L
[2]; A. baumannii IHMA 1993615, Turkey 2019, MDR
  MIC: > 16 mg/L
[2]; A. baumannii IHMA 1994284, Italy 2019, MDR
  MIC: > 16 mg/L
[2]; A. baumannii IHMA 1995161, Czech Republic 2019, Non-MDR
  MIC: 0.25 mg/L (≈ 0.652 µM)
[2]; A. baumannii IHMA 1997936, Morocco 2019, Non-MDR
  MIC: 0.12 mg/L (≈ 0.313 µM)
[2]; A. baumannii IHMA 1999178, Belgium 2019, Non-MDR
  MIC: 0.25 mg/L (≈ 0.652 µM)
[2]; A. baumannii IHMA 2003279, Turkey 2019, MDR
  MIC: > 16 mg/L
[2]; A. baumannii IHMA 2014367, Jordan 2019, Non-MDR
  MIC: 0.25 mg/L (≈ 0.652 µM)
[2]; A. baumannii IHMA 2014931, South Africa 2019, Non-MDR
  MIC: 1 mg/L (≈ 2.61 µM)
[2]; A. baumannii IHMA 2019315, Romania 2019, Non-MDR
  MIC: 0.12 mg/L (≈ 0.313 µM)
[2]; A. baumannii IHMA 2020360, Croatia 2019, MDR
  MIC: > 16 mg/L
[2]; A. baumannii IHMA 2031511, Greece 2019, Non-MDR
  MIC: 0.12 mg/L (≈ 0.313 µM)
[2]; A. baumannii IHMA 2031524, Greece 2019, MDR
  MIC: > 16 mg/L
[2]; A. baumannii IHMA 2034657, Tunisia 2019, Non-MDR
  MIC: 0.25 mg/L (≈ 0.652 µM)
[2]; A. baumannii IHMA 2035089, Serbia 2019, MDR
  MIC: > 16 mg/L
[2]; A. baumannii IHMA 2035134, Serbia 2019, Non-MDR
  MIC: 0.25 mg/L (≈ 0.652 µM)
[2]; A. baumannii IHMA 2038976, Hungary 2019, MDR
  MIC: > 16 mg/L
[2]; A. baumannii IHMA 2051503, Serbia 2019, MDR
  MIC: > 16 mg/L
[2]; A. baumannii IHMA 2058329, Slovenia 2019, Non-MDR
  MIC: 0.12 mg/L (≈ 0.313 µM)
[2]; A. baumannii IHMA 2065587, France 2019, Non-MDR
  MIC: 0.12 mg/L (≈ 0.313 µM)
[2]; A. baumannii IHMA 2099294, United Kingdom 2019, Non-MDR
  MIC: 0.25 mg/L (≈ 0.652 µM)
[2]; A. baumannii IHMA 2129256, Qatar 2019, Non-MDR
  MIC: 0.12 mg/L (≈ 0.313 µM)
[2]; A. baumannii IHMA 2154584, Israel 2020, MDR
  MIC: 16 mg/L (≈ 41.7 µM)
[2]; A. baumannii IHMA 2155340, Kenya 2020, MDR
  MIC: 16 mg/L (≈ 41.7 µM)
[2]; A. baumannii IHMA 2156634, Turkey 2020, MDR
  MIC: > 16 mg/L
[2]; A. baumannii IHMA 2156709, Turkey 2020, MDR
  MIC: > 16 mg/L
